Data: patent US9566290B2, “Boron-containing small molecules” (Anacor Pharmaceuticals, Inc., priority 2005, dated 2017)
Values after ≈ are worked out from the molar mass of the structure shown. Values joined by “and” are separate entries in the source; they are usually repeats but may differ in a detail not shown here. Equal entries are not always repeated. “Also recorded” adds a separate entry of the source. Where two headings read alike, the source gives them in different places.

Tests used:
[1] = test system: T. rubrum; assay: MIC in the presence of 5% keratin powder; format: cell-based, Trichophyton rubrum
Method: Many antifungal agents strongly bind to keratin which not only reduces their antifungal potency but also may restrict their penetration into the nail. The affinities of the compounds for keratin powder was determined by a method described in Tatsumi, Antimicrobial Agents and Chemotherapy, 46(12):3797-3801 (2002).
(§1) (C10) is a novel compound in development for use as a topical antifungal treatment. The purpose of this study was to determine the minimum inhibitory concentration (MIC) for (C10) against 19 test strains of fungi including: Aspergillus fumigatus (A. fumigatus), Candida Albicans (C. albicans, both fluconazole sensitive and resistant strains), Candida glabrata (C. glabrata), Candida krusei (C. krusei), Cryptococcus neoformans (C. neoformans), Candida parapsilosis (C. parapsilosis), Candida tropicalis (C. tropicalis), Epidermophyton floccosum (E. floccosum), Fusarium solani (F. solani), Malassezia furfur (M. furfur), Malassezia pachydermatis (M. pachydermatis), Malassezia sympodialis (M. sympodialis), Microsporum audouinii (M. audouinii), Microsporum canis (M. canis), Microsporum gypseum (M. gypseum), Trichophyton mentagrophytes (T. mentagrophytes), Trichophyton rubrum (T. rubrum), Trichophyton tonsurans (T. tonsurans). Fungal growth was evaluated after exposure to different concentrations of (C10). […]

[2] = test system: S. cerevisiae ATCC201388 bearing pRS425 or CDC60 on pRS425; assay: MIC with over-expression of wild type CDC60; format: cell-based, Saccharomyces cerevisiae; conditions: for MIC: Saccharomyces cerevisiae
Excerpt: The minimal inhibitory concentration (MIC) was essentially performed following the NCCLS guidelines outlined in the M27 protocol with the exception of using YPD or synthetic defined media (SDM).
A 4.0 kb BamH I-Sal I DNA fragment containing the entire CDC60 open reading frame (ORF) and 700 bp of upstream sequence was amplified using KOD DNA polymerase, S. cerevisiae genomic DNA (Novagen, Madison, Wis., USA), and the primers GAGGGATCCGGTTAGTTTTAGTTCGCGAGTGACCTG and GAGGTCGACGATTTCTGGTTGCTGTTTATTGATCTT (Operon, Alameda, Calif., USA). This DNA fragment was then cloned into the […] multi-copy plasmid pRS425, and transformed into S. cerevisiae ATCC201388 (Gietz, R D et al., Methods in Enzymology 305: 87-96 (2002)).

[3] = Log P determination (octanol/water) by LC/MS/MS; format: physicochemical; conditions: for Conc. in Octanol / Conc. in Water: partition
Method: C10 (10 μL of […]) at 2× the final concentration was added to 0.5 mL pre-saturated n-octanol and mixed. An equal volume (0.5 mL) of pre-saturated water was added, vortex mixed and then mixed on a rotating shaker for one hour and 24 h in triplicate at ca. 25° C. The organic and aqueous layers were separated by centrifugation for 5 min at ca. 2000 rpm. Twenty five […] of the octanol (top) layer were removed and placed in a pre-labeled tube. Twenty five L of the aqueous layer (bottom) were removed, taking care to avoid octanol contamination, and placed in a pro-labeled tube.
For the octanol sample, 25 μL of ethanol, 25 μL of water and 300 μL of acetonitrile containing the internal standard was added. For the water sample, 25 μL of ethanol, 25 μL of octanol and 300 μL of acetonitrile containing the internal standard [60 mL of acetonitrile add 6 μL of PNP (1000 μg/mL)] was added. For the calibrators 25 μL of octanol, 25 μL of water and 300 μL of acetonitrile containing the internal standard was added. The sample was vortexed for 10 seconds. Two hundred μL of the organic layer were transferred into a clean deactivated autosampler vial.
A 1/concentration weighted linear regression was used for the quantitation of C10. All integration were performed with peak areas using Analyst version 1.3, Applied Biosystems. For C10, peak area ratios analyte to internal standard PNP were used for all quantitation.
The partition coefficient (P) was calculated according to the equation detailed below: P=[Sample concentration]octanol/[Sample concentration]water Log P=log10(partition coefficient) Results: […]

[4] = test system: 19 test strains of fungi; assay: Antifungal MIC, microbroth dilution (NCCLS); format: cell-based; conditions: MIC = over 90% reduction of growth, read-out: MIC values against all fungi tested
Excerpt: as §1, with “(C10). In addition, the MIC for (C10) against T. rubrum in the presence of 5% keratin powder and the minimum fungicidal concentration (MFC) for (C10) against T. rubrum and T. mentagrophytes were also determined. Ciclopirox and/or terbinafine and/or fluconazole and/or itraconazole were used as comparators and tested in a similar manner. These studies were conducted at NAEJA Pharmaceutical, Inc.” for “(C10).”

[5] = test system: T. mentagrophytes; assay: Minimum fungicidal concentration (MFC); format: cell-based; conditions: Trichophyton mentagrophytes, lowest concentration that killed over 90%
Excerpt: as §1, with “(C10). In addition, the MIC for (C10) against T. rubrum in the presence of 5% keratin powder and the minimum fungicidal concentration (MFC) for (C10) against T. rubrum and T. mentagrophytes were also determined. Ciclopirox and/or terbinafine and/or fluconazole and/or itraconazole were used as comparators and tested in a similar manner. These studies were conducted at NAEJA Pharmaceutical, Inc.” for “(C10).”

[6] = test system: T. rubrum; assay: Minimum fungicidal concentration (MFC); format: cell-based; conditions: Trichophyton rubrum, lowest concentration that killed over 90%
Excerpt: as §1, with “(C10). In addition, the MIC for (C10) against T. rubrum in the presence of 5% keratin powder and the minimum fungicidal concentration (MFC) for (C10) against T. rubrum and T. mentagrophytes were also determined. Ciclopirox and/or terbinafine and/or fluconazole and/or itraconazole were used as comparators and tested in a similar manner. These studies were conducted at NAEJA Pharmaceutical, Inc.” for “(C10).”

What does the source list for `OB1OCc2cc(F)ccc21` [C10, 5-fluorobenzo[c][1,2]oxaborol-1(3H)-ol]?
effect of addition of 5% keratin powder to the media on MIC [1]: did not effect the MIC; increase in resistance (MIC) with additional copies of CDC60 ([2]; CDC60 on multi-copy 2 μM plasmid versus same strain bearing pRS425): eight times more resistant; also recorded: eight times higher; also recorded: eight-fold; MIC ([2]; ATCC201388, CDC60 on pRS425 (20 copies)): 1 µg/mL (≈ 6.58 µM); MIC ([2]; ATCC201388, pRS425 Plasmid control): 0.125 µg/mL (≈ 0.823 µM); Log P ([3]; 1 h, replicates): 1.93; Log P ([3]; 24 h, replicates): 1.89 and 1.91; mean log P ([3]; after 24 h (n=3)): 1.93; logP at 1 h ([3]; n-octanol/water, 1 h, replicates, read-out: Log P): 2.04; logP at 24 h ([3]; n-octanol/water, 24 h, replicates): 1.97; logP at 1 h ([3]; n-octanol/water, after 1 h (n=3), read-out: mean log P): 1.97; Conc. in Octanol ([3]; 1 h, replicates): 108 µg/mL and 103 µg/mL and 115 µg/mL; Conc. in Water ([3]; 1 h, replicates): 1.26 µg/mL and 1.21 µg/mL and 1.05 µg/mL; Conc. in Octanol ([3]; 24 h, replicates): 109 µg/mL and 99.0 µg/mL and 104 µg/mL; Conc. in Water ([3]; 24 h, replicates): 1.17 µg/mL and 1.28 µg/mL and 1.27 µg/mL; MIC [4]: 0.25 to 2 µg/mL (≈ 1.65 to 13.2 µM); MFC [5]: 16 µg/mL (≈ 105 µM); MFC [6]: 8 µg/mL (≈ 52.7 µM)
